Results from US20260274876A1, “3-PYRROLIDINE-INDOLE DIMERS AS SEROTONERGIC AGENTS USEFUL FOR THE TREATMENT OF DISORDERS RELATED THERETO” (MINDSET PHARMA INC., priority 2022, published 2026).

Key:
[1] = Intestinal mucosal permeation using Caco-2 cell monolayers; conditions: human; for Papp A→B at 2 h, 5 µM / Papp B→A at 2 h, 5 µM / efflux ratio at 2 h, 5 μM: Caco-2, pH 7.4
Method: Plate was returned to incubator.
Vortexed for 5 minutes. […] Incubated at 37° C. for 30 minutes.

human 5-HT1A receptor = target: T1, human 5-HT1A receptor (Homo sapiens, UniProt P08908); test: Human 5-HT1A functional FLIPR assay (agonist mode); format: cell-based; design: expressed in transfected cells; conditions: h5-HT1A, curve fitting with activation (%) @ 10 mM with RFU (footnote)
T1 sequence (P08908 1-422): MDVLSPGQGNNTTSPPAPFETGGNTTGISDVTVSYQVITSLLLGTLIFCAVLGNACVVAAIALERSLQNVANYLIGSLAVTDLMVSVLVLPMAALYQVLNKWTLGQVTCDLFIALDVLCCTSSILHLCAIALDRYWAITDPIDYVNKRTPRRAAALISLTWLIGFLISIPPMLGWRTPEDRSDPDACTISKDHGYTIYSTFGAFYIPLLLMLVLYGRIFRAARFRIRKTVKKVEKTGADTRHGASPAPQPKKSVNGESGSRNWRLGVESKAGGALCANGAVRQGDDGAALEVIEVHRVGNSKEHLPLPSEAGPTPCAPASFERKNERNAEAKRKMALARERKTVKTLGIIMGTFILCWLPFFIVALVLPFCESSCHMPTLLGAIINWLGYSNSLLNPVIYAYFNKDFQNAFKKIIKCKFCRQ
Method: The potential excitatory effects of compounds targeting on 5-hydroxytryptamine receptor 1A (5-HT1A) under agonist mode was assessed.
HTR1A&Gα15-CHO cells were cultured in DMEM/F12 medium containing 10% dialyzed FBS, 1×penicillin-streptomycin and 600 μg/mL Hygromycin B. The cells were passaged about three times a week, maintained between ~30% to ~90% confluence.
• 1. The cell culture medium (DMEM/F12 medium containing 10% dialyzed FBS, 1×penicillin-streptomycin and 600 μg/mL Hygromycin B), TrypLE™ Express and DPBS was warmed to R.T. in advance. • 2. The cell culture medium was removed from flask. Washed cells with DPBS. • 3. 1 mL TrypLE™ Express was added to the flask, mixed well by gentle shaking and cells were incubated at 37° C. for a few minutes. • 4. The cells were checked for morphological change under microscope, the digestion was stopped by adding 2 mL cell culture medium to the flask when most of cells turned to round. • 5. The cell suspension was transferred into a 15 mL centrifuge tube, and then centrifuged at 1,200 rpm for 5 minutes. • 6. The supernatant was removed. The cell pellet were resuspended with 2 mL cell culture medium. • 7. The cell density were counted using cell counter. Only cells with >85% viability were used for the assay. • 8. Cells were diluted to 4×10^5/mL with cell culture medium. • 9. 30 μL/well cell suspensions were added into a 384-well cell plate (The cell density was 12,000 cells/well). • 10. The cell plate was incubated overnight at 37° C., 5% (v/v) CO2.
• 1. On the day of experiments, culture medium was removed from the cell plate. • 2. 10 μL of assay buffer (20 mM HEPES, in 1×HBSS, pH 7.4) was added to each well of the cell plate. • 3. 2×dye solution was prepared following the manufacture's instruction of the FLIPR® Calcium 6 assay kit: • i. The dye was diluted with assay buffer. • ii. probenecid was added to the final concentration of 5 mM. • iii. Vortexed vigorously for I-2 minutes, adjust pH to 7.4. • 4. 10 μL of 2×dye solution was added to each well of the cell plate. • 5. The cell plate was placed on plate shaker, followed by shaking at 600 rpm for 2 minutes. • 6. The plate was incubated at 37° C. for 2 hours followed by an additional 15-minute incubation at 25° C.
• 1. Serotonin was prepared to the concentration of 10 mM with DMSO, 3-folds serial dilutions were performed with DMSO. • 2. Prepare the test compound to the concentration of 10 mM with DMSO, preform 3-folds serial dilutions with DMSO. • 3. The compounds were added to a 384-well compound source plate. • 4. 90 nL/well of serial diluted compounds were transferred from source plate to a 384-well compound plate by using an Echo. • 5. 30 μL/well of assay buffer was added to the compound plate. • 6. The plate was mixed on-plate shaker for 2 minutes.
• 1. After the cells incubate with dye solution, the cell plate, compound plate containing 3×compounds and FLIPR tips were placed into FLIPR. • 2. 10 μL of 3×compounds were transferred from the compound plate to the cell plate by FLIPR. • 3. The plate was read for 160 sec with 1 sec interval to obtain the data of agonist mode.
• 1. The normalized fluorescence reading (RFU) was calculated as shown below, wherein Fmax and Fmin stand for maximum and minimum of calcium signal during defined time window:
[formula] • 2. EC50 was calculated by fitting RFU against log of compound concentrations with Hill equation using XLfit.

[2] = Liver microsomes stability, mouse; conditions: for half-life at 2 μM / microsomal CLint at 2 μM: male, mouse; for half-life at 2 μM / microsomal CLint at 2 μM / Remaining Percentage (%) after 60 min, Mouse, With cofactors / Remaining Percentage (%) after 60 min, Mouse, Without cofactors: mouse liver microsomes
Method: 40 μL of 10 mM NADPH solution was added to each well. The final concentration of NADPH was 1 mM. The negative control samples were prepared by replacing NADPH with 40 μL of ultra-pure H2O. Samples were prepared in duplicate. Negative controls were prepared in singlet.
This study was performed in duplicate.
LC/MS analysis was performed for all samples from this study using a Shimadzu liquid chromatograph separation system equipped with degasser DGU-20A5R; solvent delivery unit LC-30AD; system controller SIL-30AC; column oven CTO-30A; CTC Analytics HTC PAL System. Mass spectrometric analysis was performed using a Triple Quad™ 5500 instrument.
All calculations were carried out using Microsoft Excel.
All calculations were carried out using Microsoft Excel. Peak areas were determined from extracted ion chromatograms.

[3] = Caco-2, pH 7.4, Percentage recovery (%) A→B, Caco-2, A→B
[4] = Caco-2, pH 7.4, Percentage recovery (%) B→A, Caco-2, B→A

| SMILES | Papp A→B at 2 h, 5 µM [1] | Papp B→A at 2 h, 5 µM [1] | efflux ratio at 2 h, 5 μM [1] | recovery at 2 h, 5 μM [1, 3] | recovery at 2 h, 5 μM [1, 4] | RFU@10 μM (human 5-HT1A receptor) | half-life at 2 μM [2] | microsomal CLint at 2 μM [2] | Remaining Percentage (%) after 60 min, Mouse, With cofactors [2] | Remaining Percentage (%) after 60 min, Mouse, Without cofactors [2] | t1/2 Mouse ([2]; mouse liver microsomes with NADPH, 2 μM) |
| --- | --- | --- | --- | --- | --- | --- | --- | --- | --- | --- | --- |
| CN1CCC[C@@H]1Cc1c[nH]c2cccc(O)c12 [Compound 10, (R)-3-((1-methylpyrrolidin-2-yl)methyl)-1H-indol-4-ol] | 23.2 ×10⁻⁶ cm/s | 18.8 ×10⁻⁶ cm/s | 0.81 | 82.7% | 92% | 425 RFU |  |  |  |  |  |
| [2H]C([2H])(c1c[nH]c2cccc(O)c12)[C@H]1CCCN1C([2H])([2H])[2H] [Compound 13, (R)-3-((1-(methyl-d3)pyrrolidin-2-yl)methyl-d2)-1H-indol-4-ol] |  |  |  |  |  | 307 RFU |  |  |  |  |  |
| CN1CCC[C@@H]1Cc1c[nH]c2cccc(OC(=O)CCCC(=O)Oc3cccc4[nH]cc(C[C@H]5CCCN5C)c34)c12 [Compound I-13, Bis(3-(((R)-1-methylpyrrolidin-2-yl)methyl)-1H-indol-4-yl) glutarate] | 0.63 ×10⁻⁶ cm/s | 4.1 ×10⁻⁶ cm/s | 6.5 | 94.7% | 110% | 87 RFU | < 4.51 min | > 307 µL/min/mg | 0% | 0% |  |
| [2H]C([2H])(c1c[nH]c2cccc(OC(=O)CCCC(=O)Oc3cccc4[nH]cc(C([2H])([2H])[C@H]5CCCN5C([2H])([2H])[2H])c34)c12)[C@H]1CCCN1C([2H])([2H])[2H] [Compound I-22, bis(3-(((R)-1-(methyl-d3)pyrrolidin-2-yl)methyl-d2)-1H-indol-4-yl) glutarate] | < 0.25 ×10⁻⁶ cm/s | 1.01 ×10⁻⁶ cm/s | > 4.08 | < 126% | 101% | 130 RFU | < 4.51 min | > 307 µL/min/mg | 0% | 0% |  |
| CN(C)CCc1c[nH]c2cccc(O)c12 [Psilocin, 4-hydroxy-N,N-dimethyltryptamine, reference compound] | 24.6 ×10⁻⁶ cm/s | 18.7 ×10⁻⁶ cm/s |  | 100% | 102% | 140 RFU |  |  | 96.89% |  | 141.71 min |
